Counter-ions that a name gives are not always drawn.
Assays:
[1] = test system: Pseudomonas aeruginosa (strain PA14 wild type); assay: Dose-response growth curves (OD600 after 24 h) to identify the minimum inhibitory concentration; type: cell-based; conditions: for MIC: Pseudomonas aeruginosa, P. aeruginosa PA14, the stated concentration is 'just below' the MIC
Description: (§1) Optical density at 600 nm (OD600) to identify the minimum inhibitory concentration (MIC) of A) carbenicillin, B) rifampicin, and C) gentamicin for Pseudomonas aeruginosa, and D) gentamicin for Escherichia coli in accordance with an embodiment is illustrated in FIGS. 5A-5D. The P. aeruginosa strain, PA14 used in some embodiments has differing susceptibility to carbenicillin [+C] and rifampicin [+R]. Several embodiments refer to the antibiotic treatments that are performed with 50 μg/mL and 400 μg/mL of carbenicillin and rifampicin, respectively as the AST dataset. These concentrations are just below the respective minimum inhibitory concentrations (MICs) for these antibiotics in P. aeruginosa, as shown in FIGS. 5A and 5B. OD600 of a P. aeruginosa cell culture at indicated growth times after adjustment to OD at 0.5 at 0 h, A) without antibiotic treatment, B) with 50 μg/mL carbenicillin introduced at 0 h, and C) with 400 μg/mL rifampicin introduced at 0 h in accordance with an embodiment of the invention is illustrated in FIGS. 6A-6C.
(§2) Pseudomonas aeruginosa (strain PA14 wild type) and Escherichia coli (strain MC4100, K-12, F-araD139Δ(argF-lac)U169 rspL150 relA1 fIbB5301 fruA25 deoC1 ptsF25) cultures were obtained by first streaking from a frozen culture stock onto LB Lennox agar (IBI Scientific) plates and incubated at 37° C. for 24 h. Individual colonies from these plates were used to inoculate 100 mL of LB in triplicate, and subsequently grown for 18 h at 37° C. and shaking at 230 rpm. The 18 h cultures were centrifuged at 5000 rpm for 5 minutes, then resuspended in fresh LB to reach an optical density at 600 nm (OD600) of 0.50 as measured by a BioChrom Colourwave CO7500 Colorimeter.
Dose-Response Curves: Carbenicillin disodium salt, gentamicin sulfate, and rifampicin stock solutions were prepared to a final concentration of 10 mg/mL in water for the former two and 20% (v/v) DMSO/H2O for the latter. These stock solutions were added into 180 μL of E. coli or P. aeruginosa resuspension in a 96-well plate such that 9 separate 10-fold dilutions of each antibiotic starting at 1000 μg/mL were achieved. Vehicle controls using pure water for carbenicillin and gentamicin and 20% (v/v) DMSO/H2O for rifampicin were also created in the same 96-well plate. These plates were then incubated at 37° C. for 24 h with 230 rpm shaking, after which OD600 measurements were taken with a SpectraMax M2 Plate Reader.

[2] = test system: P. aeruginosa cell culture; assay: OD600 of cell culture over time of antibiotic exposure after adjustment to OD 0.5; type: cell-based, Pseudomonas aeruginosa; conditions: 50 μg/mL carbenicillin, about 2 hour exposure
Description: as §1, with “OD600 of a P. aeruginosa cell culture at indicated growth times after adjustment to OD at 0.5 at 0 h, A) without antibiotic treatment, B) with 50 μg/mL carbenicillin introduced at 0 h, and C) with 400 μg/mL rifampicin introduced at 0 h in accordance with an embodiment of the invention is illustrated in FIGS. 6A-6C.” left out
as §2, with “Individual colonies from these plates were used to inoculate 100 mL of LB in triplicate, and subsequently grown for 18 h at 37° C. and shaking at 230 rpm.” left out, “Colorimeter. […]” for “Colorimeter.”

[3] = test system: P. aeruginosa lysate; assay: SERS spectra of cell lysate after antibiotic exposure, VAE latent space analysis; type: cell-based, Pseudomonas aeruginosa
Description: The VAE space from analysis of the AST dataset in accordance with many embodiments provide clustering of the different treatment classes. VAE space of AST spectra from untreated [−−] P. aeruginosa lysate (0.5 h/2 h), 50 μg/mL carbenicillin treated [+C] P. aeruginosa lysate (0.5 h/2 h), 400 μg/mL rifampicin treated [+R] P. aeruginosa lysate (0.5 h/2 h) in accordance with an embodiment of the invention is illustrated in FIG. 7A. […] Some embodiments provide that larger relative VAE 1 values can be observed for 30 minute treatment times for all treatment classes as compared to 2 hour exposure. This is consistent with OD600 measurements indicating cell recovery after 2 hour in FIGS. 6A-6C.
Many embodiments provide VAE performance on differentiating spectra from multiple bacterial species, a different antibiotic, time points, and dosages. SERS spectra from cellular lysate with varying dose and temporal response of P. aeruginosa and E. coli when exposed to gentamicin are analyzed similarly as the AST dataset in several embodiments. When analyzing the SERS spectra from E. coli and P. aeruginosa with the VAE method, differentiation of P. aeruginosa lysate data at concentrations at about 0.1 μg/mL, an order of magnitude below the MIC, can be observed in accordance with some embodiments. […]

[4] = test system: E. coli lysate; assay: as above; type: cell-based, Escherichia coli
Description: Many embodiments provide VAE performance on differentiating spectra from multiple bacterial species, a different antibiotic, time points, and dosages. SERS spectra from cellular lysate with varying dose and temporal response of P. aeruginosa and E. coli when exposed to gentamicin are analyzed similarly as the AST dataset in several embodiments. When analyzing the SERS spectra from E. coli and P. aeruginosa with the VAE method, differentiation of P. aeruginosa lysate data at concentrations at about 0.1 μg/mL, an order of magnitude below the MIC, can be observed in accordance with some embodiments. FIG. 9A illustrates VAE latent space analysis of SERS spectra of dose response of P. aeruginosa with analysis of 0, 0.1, 0.5, 1, and 10 μg/mL gentamicin dosed lysate respectively in accordance with an embodiment. In several embodiments, lysate from P. aeruginosa exposed to 10 μg/mL gentamicin (10×MIC) can be analyzed with VAE method and differentiated from control data in the VAE space at about 20 minute after initial exposure. The short temporal response time in accordance with some embodiments is much earlier than reported 2 hour response time for SERS AST. FIG. 9B illustrates VAE latent spaces of temporal response of P. aeruginosa with lysate processed after 0, 5, 10, 20, and 40 minutes of 10 μg/mL gentamicin dosage respectively in accordance with an embodiment. […]

Row | Compound | MIC [1] [µg/mL] | growth inhibition over the time of exposure (OD600) [2] | time after initial exposure at which lysate is differentiated from control in VAE space ([3]; 10 μg/mL gentamicin) | antibiotic concentration at which lysate data are differentiated from control in VAE space ([3]; gentamicin dose response 0, 0.1, 0.5, 1, 10 μg/mL, an order of magnitude below the MIC) | dose as a multiple of the MIC ([1]; 10 μg/mL gentamicin, P. aeruginosa) [×MIC] | resistance of P. aeruginosa (from growth curves, FIGS. 5A-5D) ([1]; P. aeruginosa) | time after initial exposure at which discernable clustering appears in VAE space ([4]; 10 μg/mL gentamicin) | antibiotic concentration at which lysate data are differentiated from control treatment in VAE space ([4]; gentamicin dose response 0, 0.1, 0.5, 1, 10 μg/mL) [µg/mL]
1 | CO[C@H]1/C=C/O[C@@]2(C)Oc3c(C)c(O)c4c(O)c(c(/C=N/N5CCN(C)CC5)c(O)c4c3C2=O)NC(=O)/C(C)=C\C=C\[C@H](C)[C@H](O)[C@@H](C)[C@@H](O)[C@@H](C)[C@H](OC(C)=O)[C@@H]1C [rifampicin] | > 400 | – | – | – | – | – | – | –
2 | CC1(C)S[C@@H]2[C@H](NC(=O)C(C(=O)O)c3ccccc3)C(=O)N2[C@H]1C(=O)O (stereo partly drawn) [carbenicillin, Carbenicillin disodium salt] | > 50 | does not exhibit any significant growth inhibition | – | – | – | – | – | –
3 | gentamicin sulfate | – | – | about 20 minute | about 0.1 μg/mL | 10 | evident resistance | about 10 minute | ≤ 0.1

From US20230223113A1, “Methods and Systems for Rapid Antimicrobial Susceptibility Tests” (The Regents of the University of California, priority 2020, published 2023)
